Source: patent publication US9624215B2, “Amine derivative or salt thereof” (TOYAMA CHEMICAL CO., LTD., priority 2012, dated 2017)

How the values were obtained:
[1] = system: normal human neonatal foreskin epidermal keratinocytes (NHEK-F); test: Cell proliferation inhibition test; type: cell-based; conditions: Keratinocyte, 72 h, NHEK-F cells, three days incubation, ATPlite or CellTiterGlo, read-out: IC50 (concentration of the compound at which the cell count is reduced by 50%)
Procedure, shortened: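 IC50 is the compound level halving cell count relative to untreated wells, with counts from ATP-based luminescence (ATPlite or CellTiterGlo). Readout followed 3 days of compound exposure of overnight-attached neonatal foreskin keratinocytes (2×10^3/well, Humedia-EG2 medium).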

[2] = system: TNFα production in LPS-stimulated Raw264.7 cells; test: TNFα production inhibition test; type: cell-based; conditions: Mus musculus, test compound 1 μmol/L, LPS 1 μg/mL, 16 hours, ELISA, read-out: Inhibition rate of TNFα production
Description: 7×10^4 mouse macrophage-derived cell line Raw264.7 cells were suspended in 100 μL of RPMI1640 medium containing 10% fetal bovine serum, plated in a 96-well plate and incubated overnight. The culture supernatant was removed and the test compound diluted in RPMI1640 medium containing 1% fetal bovine serum (final concentration: 1 μmol/L) was added. One hour after the addition, LPS (B4:0111) (Sigma-Aldrich, L2630) was added to a final concentration of 1 μg/mL. 16 hours after the stimulation, the culture supernatant was collected and the amount of TNFα produced in the culture supernatant was determined using ELISA kit (R&D Systems, MTA00B).
The inhibition rate was calculated from the following formula. Inhibition rate (%)=100−(amount of TNFα produced in the presence of test compound/amount of TNFα produced in the absence of test compound)×100

| SMILES | IC50 [1] [µM] | inhibition at 1 µM [2] [%] |
| --- | --- | --- |
| O=C(O)c1cc(Cl)ccc1Nc1ccc2c(ccn2Cc2ccccc2)c1 [Example 2, 2-((1-benzyl-1H-indol-5-yl)amino)-5-chlorobenzoic acid] | ≤ 0.01 | ≥ 50 |
| O=C(O)c1cc(Cl)ccc1Nc1cnc2c(ccn2Cc2ccccc2)c1 [Example 11, 2-((1-benzyl-1H-pyrrolo(2,3-b)pyridin-5-yl)amino)-5-chlorobenzoic acid] | 0.01 to 0.1 | ≥ 50 |
| O=C(O)c1cc(Cl)ccc1Nc1ccc2c(ccn2Cc2cccc(N3CCOCC3)c2)c1 [Example 14, 5-chloro-2-((1-(3-morpholinobenzyl)-1H-indol-5-yl)amino)benzoic acid] | ≤ 0.01 | ≥ 50 |
| O=C(O)c1cc(Cl)ccc1Nc1ccc2c(ccn2Cc2cccc(O)c2)c1 [Example 17, 5-chloro-2-((1-(3-hydroxybenzyl)-1H-indol-5-yl)amino)benzoic acid] | ≤ 0.01 | ≥ 50 |
| O=C(O)c1cc(Cl)ccc1Nc1ccc2c(cnn2Cc2ccccc2)c1 [Example 21, 2-((1-benzyl-1H-indazol-5-yl)amino)-5-chlorobenzoic acid] | ≤ 0.01 | ≥ 50 |
| O=C(O)c1cc(C2CC2)ccc1Nc1cnc2c(ccn2Cc2ccccc2)c1 [Example 27, 2-((1-benzyl-1H-pyrrolo(2,3-b)pyridin-5-yl)amino)-5-cyclopropylbenzoic acid] | ≤ 0.01 | ≥ 50 |
| O=C(O)c1cc(C2CC2)ccc1Nc1ccc2c(ccn2-c2ccccc2)c1 [Example 59, 5-cyclopropyl-2-((1-phenyl-1H-indol-5-yl)amino)benzoic acid] | ≤ 0.01 | ≥ 50 |
| O=C(O)c1cc(Cl)ccc1Nc1ccc2c(c1)oc(=O)n2Cc1ccccc1 [Example 61, 2-((3-benzyl-2-oxo-2,3-dihydrobenzo[d]oxazol-6-yl)amino)-5-chlorobenzoic acid] | 0.01 to 0.1 | ≥ 50 |
| Cn1c(=O)n(Cc2ccccc2)c2ccc(Nc3ccc(Cl)cc3C(=O)O)cc21 [Example 65, 2-((1-benzyl-3-methyl-2-oxo-2,3-dihydro-1H-benzo[d]imidazol-5-yl)amino)-5-chlorobenzoic acid] | 0.1 to 1 | ≥ 50 |
| O=C(O)c1cc(Cl)ccc1Nc1ccc2c(c1)sc(=O)n2Cc1ccccc1 [Example 67, 2-((3-benzyl-2-oxo-2,3-dihydrobenzo[d]thiazol-6-yl)amino)-5-chlorobenzoic acid] | 0.01 to 0.1 | ≥ 50 |
| O=C(O)c1cc(Cl)ccc1Nc1ccc2c(c1)ncc(=O)n2Cc1ccccc1 [Example 69, 2-((1-benzyl-2-oxo-1,2-dihydroquinoxalin-6-yl)amino)-5-chlorobenzoic acid] | 0.1 to 1 | ≥ 50 |
| N#Cc1ccc(-n2ccc3cc(Nc4ccc(C5CC5)cc4C(=O)O)ccc32)cc1 [Example 106-1, 2-((1-(4-Cyanophenyl)-1H-indol-5-yl)amino)-5-cyclopropylbenzoic acid] |  | ≥ 50 |
| NC(=O)c1ccc(-n2ccc3cc(Nc4ccc(C5CC5)cc4C(=O)O)ccc32)cc1 [Example 106-2, 2-((1-(4-Carbamoylphenyl)-1H-indol-5-yl)amino)-5-cyclopropylbenzoic acid] |  | ≥ 50 |
| O=C(O)c1cc(Cl)ccc1Nc1ccc2c(c1)CCN(Cc1ccccc1)C2=O [Example 265, 2-((2-benzyl-1-oxo-1,2,3,4-tetrahydroisoquinolin-6-yl)amino)-5-chlorobenzoic acid] |  | ≥ 50 |
| O=C(O)c1cc(Cl)ccc1Nc1ccc2c(c1)CCC(=O)N2Cc1ccccc1 [Example 267, 2-((1-benzyl-2-oxo-1,2,3,4-tetrahydroquinolin-6-yl)amino)-5-chlorobenzoic acid] |  | ≥ 50 |
| O=C(O)c1cc(C2CC2)ccc1Nc1ccc2c(c1)CN(Cc1ccccc1)C2=O [Example 287, 2-((2-benzyl-1-oxoisoindolin-5-yl)amino)-5-cyclopropylbenzoic acid] |  | ≥ 50 |
